Columns and labels:
PTPN2 = biological target: T1, PTPN2 (Homo sapiens, UniProt P17706); assay: PTP inhibition assay with DiFMUP substrate (IC50); format: biochemical; conditions: DiFMUP 10 μM as substrate
T1 construct: PTPN2, residues 1-387; made in house; host or cells: E. coli BL21(DE3)
T1 sequence (P17706 1-387 isoform P17706-2): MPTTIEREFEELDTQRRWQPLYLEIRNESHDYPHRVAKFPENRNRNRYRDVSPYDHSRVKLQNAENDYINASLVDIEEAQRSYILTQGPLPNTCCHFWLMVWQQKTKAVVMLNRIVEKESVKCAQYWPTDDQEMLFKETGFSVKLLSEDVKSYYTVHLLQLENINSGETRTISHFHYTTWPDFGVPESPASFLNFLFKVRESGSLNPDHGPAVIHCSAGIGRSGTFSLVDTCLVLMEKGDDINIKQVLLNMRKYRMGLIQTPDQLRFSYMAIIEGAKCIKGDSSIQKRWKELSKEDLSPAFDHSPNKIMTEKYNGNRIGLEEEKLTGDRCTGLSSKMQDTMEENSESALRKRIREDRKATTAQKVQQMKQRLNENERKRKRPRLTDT
Procedure: E. coli BL21(DE3) (Novagen) was used as an expression host and the induction of protein expression was carried out in LB media with 1 mM IPTG at 18 °C overnight. Cell pellets were stored at −80 °C for subsequent protein purification.
Protein purification of PTPs for enzymatic assays was conducted at 4 °C. Frozen cell pellets were lysed by sonication in 40 ml cold lysis buffer (50 mM Tris-HCl, pH 8.0, 150 mM NaCl, 5 mM imidazole, and 1 mM PMSF) per litre cell pellet. Cell lysates were clarified by centrifugation using a Beckman JA-18 rotor for 15 min at 5308 x g. The supernatant was incubated with HisPur Ni-NTA resin (Thermo Scientific) for 2 h and then packed onto a column and washed with 50 resin volume of buffer A (50 mM Tris-HCl, pH 8.0, 500 mM NaCl, 5 mM imidazole). The His-tagged proteins were eluted with Buffer B (50 mM Tris-HCl, pH=8.0, 500 mM NaCl, 300 mM imidazole,). Pooled His-protein-containing fractions were concentrated, loaded onto a HiLoad 26/600 Superdex 75 column (GE Healthcare Biosciences) and eluted with storage buffer (50 mM Tris-HCl, pH 8.0, 150 mM NaCl, 1 mM DTT, 10% glycerol). […] The protein was aliquoted and stored at −80 °C.
(§1) The PTP kinetic assay was modified from previous reported protocols[73],[74]. […] The fluorescence signal was measured using a CLARIOstar Plus Microplate Spectrophotometer (BMG Labtech) using excitation and emission wavelengths of 340 nm and 450 nm, respectively. […]
(§2) To determine the mode of inhibition, the reactions were initiated by the addition of enzyme (final concentration for PTP1B and PTPN2 was 0.05 nM) to the reaction mixtures (0.2 ml) containing various concentrations of DiFMUP with different concentrations of the inhibitor. […] The fluorescence signal was measured using a CLARIOstar Plus Microplate Spectrophotometer (BMG Labtech) using excitation and emission wavelength of 340 nm and 450 nm, respectively. […]

PTP1B = biological target: T2, PTP1B (Homo sapiens, UniProt P18031); assay: PTP inhibition assay with DiFMUP substrate (IC50); format: biochemical
T2 construct: PTP1B, residues 1-321; made in house; host or cells: E. coli BL21(DE3)
T2 sequence (P18031 1-321): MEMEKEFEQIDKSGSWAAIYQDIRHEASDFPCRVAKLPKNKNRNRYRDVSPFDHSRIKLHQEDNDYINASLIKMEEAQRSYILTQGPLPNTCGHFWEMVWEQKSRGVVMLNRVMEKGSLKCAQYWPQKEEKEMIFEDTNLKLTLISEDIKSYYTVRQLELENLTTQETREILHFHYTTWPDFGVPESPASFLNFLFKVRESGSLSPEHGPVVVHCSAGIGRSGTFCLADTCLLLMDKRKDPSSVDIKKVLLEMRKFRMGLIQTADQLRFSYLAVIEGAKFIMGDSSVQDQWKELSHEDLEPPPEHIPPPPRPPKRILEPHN
Procedure: Cell pellets were stored at −80 °C for subsequent protein purification.
Protein purification of PTPs for enzymatic assays was conducted at 4 °C. Frozen cell pellets were lysed by sonication in 40 ml cold lysis buffer (50 mM Tris-HCl, pH 8.0, 150 mM NaCl, 5 mM imidazole, and 1 mM PMSF) per litre cell pellet. […] The supernatant was incubated with HisPur Ni-NTA resin (Thermo Scientific) for 2 h and then packed onto a column and washed with 50 resin volume of buffer A (50 mM Tris-HCl, pH 8.0, 500 mM NaCl, 5 mM imidazole). The His-tagged proteins were eluted with Buffer B (50 mM Tris-HCl, pH=8.0, 500 mM NaCl, 300 mM imidazole,). […]
as §1, §2

IC50 (PTPN2): 1.6 ± 0.06 nM
IC50 (PTP1B; DiFMUP 10 μM as substrate): 1.84 ± 0.09 nM
IC50 values relative to those of Compound 182 (PTP1B; PTP1B and PTPN2, same conditions): approximately 3 fold
Structure (SMILES): CC(C)CCN[C@@H]1CCc2cc(O)c(N3CC(=O)NS3(=O)=O)c(F)c2C1 [ABBV-CLS-484]

Reference: article PMC10374545, “A small molecule inhibitor of PTP1B and PTPN2 enhances T cell anti-tumor immunity” (Nature Communications, 2023)
